# Results taken from ChEMBL document CHEMBL5154887, “Novel CRBN-Recruiting Proteolysis-Targeting Chimeras as Degraders of Stimulator of Interferon Genes with In Vivo Anti-Inflammatory Efficacy” (J Med Chem, 2022).
# Assays:
# Mus musculus [1] = test: Antiinflammatory activity against cisplatin-induced acute kidney injury in C57BL/6J mouse model assessed as reduction in kidney weight at 60 mg/kg, ip pretreated for 1 hr followed by cisplatin administration and measured after 72 hrs relative to control; assay type: functional; parameters: scale not given: the % may be the effect or the level left; settings: time 73 hrs
# [2] = Toxicity in cisplatin-induced acute kidney injury in C57BL/6J mouse model assessed as vacuole like changes in kidney at 30 to 60 mg/kg, ip pretreated for 1 hr followed by cisplatin administration and measured after 72 hrs by H and E staining based analysis; assay type: organism-based; settings: in vivo, 73 h, dose 30-60 mg/kg
# [3] = Cmax in Sprague-Dawley rat at 2 mg/kg, iv measured upto 48 hrs by UPLC-triple quadrupole MS analysis; assay type: ADME, organism-based; parameters: dose 2 mg/kg, time < 48 hrs, route iv; settings: in vivo
# [4] = Apparent volume of distribution in Sprague-Dawley rat at 2 mg/kg, iv measured upto 48 hrs by UPLC-triple quadrupole MS analysis; assay type: ADME, organism-based; settings: in vivo, read-out: Vz
# Mus musculus [5] = test: In vivo inhibition of STING signalling pathway in ip dosed cisplatin-induced acute kidney injury in C57BL/6J mouse model assessed as reduction in IL-6 expression in blood of mouse eyeballs pretreated for 1 hr followed by cisplatin administration and measured after 72 hrs by ELISA; assay type: functional, organism-based; settings: time 73.0 hrs, DDE = dose-dependent effect
# [6] = Clearance in Sprague-Dawley rat at 2 mg/kg, iv measured upto 48 hrs by UPLC-triple quadrupole MS analysis; assay type: ADME, organism-based; settings: in vivo
# [7] = Tmax in Sprague-Dawley rat at 20 mg/kg, po measured upto 48 hrs by UPLC-triple quadrupole MS analysis; assay type: ADME, organism-based; settings: in vivo
# Mus musculus [8] = test: In vivo inhibition of STING signalling pathway in ip dosed cisplatin-induced acute kidney injury in C57BL/6J mouse model assessed as reduction in CXCL10 expression in blood of mouse eyeballs pretreated for 1 hr followed by cisplatin administration and measured after 72 hrs by ELISA; assay type: functional, organism-based; settings: time 73.0 hrs, DDE = dose-dependent effect
# [9] = Toxicity in cisplatin-induced acute kidney injury in C57BL/6J mouse model assessed as tubular epithelial edema in kidney at 30 to 60 mg/kg, ip pretreated for 1 hr followed by cisplatin administration and measured after 72 hrs by H and E staining based analysis; assay type: organism-based; settings: in vivo, 73 h, dose 30-60 mg/kg
# [10] = MRT (0 to infinity) in Sprague-Dawley rat at 2 mg/kg, iv measured upto 48 hrs by UPLC-triple quadrupole MS analysis; assay type: ADME, organism-based; settings: in vivo
# [11] = Toxicity in cisplatin-induced acute kidney injury in C57BL/6J mouse model assessed as illegible tubular structure in kidney at 30 to 60 mg/kg, ip pretreated for 1 hr followed by cisplatin administration and measured after 72 hrs by H and E staining based analysis; assay type: organism-based; settings: in vivo, 73 h, dose 30-60 mg/kg
# [12] = Toxicity in C57BL/6J mouse model of cisplatin-induced acute kidney injury assessed as survival rate at 30 mg/kg, ip pretreated for 1 hr followed by cisplatin administration and measured after 72 hrs relative to control; assay type: organism-based; settings: in vivo, 73 h
# [13] = biological target: T1, Protein cereblon/Stimulator of interferon genes protein (Homo sapiens, UniProt Q96SW2+Q86WV6); test: Protac activity at CRBN/STING in human THP-1 cells assessed as increase in STING degradation at 10 uM measured after 4 to 48 hrs by Western blot analysis; assay type: cell-based; settings: time 4-48 hrs, TDE = time-dependent effect
# [14] = Cytotoxicity against mouse C17.2 cells assessed as cell growth inhibition at 30 uM by MTT assay relative to control; assay type: toxicity, cell-based
# [15] = MRT (0 to t) in Sprague-Dawley rat at 20 mg/kg, po measured upto 48 hrs by UPLC-triple quadrupole MS analysis; assay type: ADME, organism-based; settings: in vivo
# [16] = biological target: T1, Protein cereblon/Stimulator of interferon genes protein; test: Protac activity at CRBN/STING in human THP-1 cells assessed as increase in STING degradation at 10 uM incubated for 48 hrs by Western blot analysis relative to control; assay type: cell-based
# [17] = Renal toxicity in C57BL/6J mouse assessed as reduction in BUN level at 60 mg/kg, ip (Rvb= 8.9 mmol/L); assay type: organism-based; settings: in vivo
# [18] = AUC (0 to t) in Sprague-Dawley rat at 2 mg/kg, iv measured upto 48 hrs by UPLC-triple quadrupole MS analysis; assay type: ADME, organism-based; parameters: time < 48 hrs, dose 2 mg/kg, route iv; settings: in vivo
# [19] = Toxicity in cisplatin-induced acute kidney injury in C57BL/6J mouse model assessed as marked inflammatory cell exudation in kidney at 30 to 60 mg/kg, ip pretreated for 1 hr followed by cisplatin administration and measured after 72 hrs by H and E staining based analysis; assay type: organism-based; settings: in vivo, 73 h, dose 30-60 mg/kg
# [20] = Cmax in Sprague-Dawley rat at 20 mg/kg, po measured upto 48 hrs by UPLC-triple quadrupole MS analysis; assay type: ADME, organism-based; parameters: time < 48 hrs, dose 20 mg/kg, route po; settings: in vivo
# [21] = Renal toxicity in C57BL/6J mouse assessed as reduction in BUN level at 30 mg/kg, ip (Rvb= 8.9 mmol/L); assay type: organism-based; settings: in vivo
# [22] = Half life in Sprague-Dawley rat at 20 mg/kg, po measured upto 48 hrs by UPLC-triple quadrupole MS analysis; assay type: ADME, organism-based; settings: in vivo
# [23] = Cytotoxicity against HEK293-A cells assessed as reduction in cell viability at <10 uM by MTT assay; assay type: toxicity, cell-based; settings: human
# [24] = Clearance in Sprague-Dawley rat at 20 mg/kg, po measured upto 48 hrs by UPLC-triple quadrupole MS analysis; assay type: ADME, organism-based; settings: in vivo
# [25] = Tmax in Sprague-Dawley rat at 2 mg/kg, iv measured upto 48 hrs by UPLC-triple quadrupole MS analysis; assay type: ADME, organism-based; settings: in vivo
# THP-1 = test: Inhibition of cGAS-STING signalling pathway in human THP-1 cells assessed as downregulation of cGAMP-triggered CXCL10 expression preincubated for 2 hrs followed by cGAMP stimulation and measured after 24 hrs by ELISA; assay type: cell-based; settings: dose 2.5-20 µM, time 26.0 hrs, DDE = dose-dependent effect
# [26] = MRT (0 to t) in Sprague-Dawley rat at 2 mg/kg, iv measured upto 48 hrs by UPLC-triple quadrupole MS analysis; assay type: ADME, organism-based; settings: in vivo
# [27] = Cytotoxicity against HEK293-A cells assessed as cell growth inhibition at 30 uM by MTT assay relative to control; assay type: toxicity, cell-based; settings: human
# [28] = Toxicity in C57BL/6J mouse assessed as body weight loss at 60 mg/kg, ip measured after 4 days relative to control; assay type: organism-based; settings: in vivo, 96 h, time 4 day
# [29] = Renal toxicity in C57BL/6J mouse assessed as reduction in creatinine level at 30 mg/kg, ip (Rvb= 8.5 umol/L); assay type: organism-based; settings: in vivo
# T1 sequence (Q86WV6 whole entry, looked up): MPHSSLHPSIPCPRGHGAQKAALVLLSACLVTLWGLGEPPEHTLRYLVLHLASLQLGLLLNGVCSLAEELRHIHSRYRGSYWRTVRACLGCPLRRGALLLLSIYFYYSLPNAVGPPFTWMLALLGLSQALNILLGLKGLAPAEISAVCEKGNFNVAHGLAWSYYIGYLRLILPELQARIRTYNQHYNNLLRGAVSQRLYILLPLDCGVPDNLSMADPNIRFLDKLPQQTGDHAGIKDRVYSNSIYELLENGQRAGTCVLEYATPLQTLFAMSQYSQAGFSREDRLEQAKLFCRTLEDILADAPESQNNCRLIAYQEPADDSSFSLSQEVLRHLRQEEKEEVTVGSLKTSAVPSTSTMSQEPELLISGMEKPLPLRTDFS
# T1 sequence (Q96SW2 whole entry, looked up): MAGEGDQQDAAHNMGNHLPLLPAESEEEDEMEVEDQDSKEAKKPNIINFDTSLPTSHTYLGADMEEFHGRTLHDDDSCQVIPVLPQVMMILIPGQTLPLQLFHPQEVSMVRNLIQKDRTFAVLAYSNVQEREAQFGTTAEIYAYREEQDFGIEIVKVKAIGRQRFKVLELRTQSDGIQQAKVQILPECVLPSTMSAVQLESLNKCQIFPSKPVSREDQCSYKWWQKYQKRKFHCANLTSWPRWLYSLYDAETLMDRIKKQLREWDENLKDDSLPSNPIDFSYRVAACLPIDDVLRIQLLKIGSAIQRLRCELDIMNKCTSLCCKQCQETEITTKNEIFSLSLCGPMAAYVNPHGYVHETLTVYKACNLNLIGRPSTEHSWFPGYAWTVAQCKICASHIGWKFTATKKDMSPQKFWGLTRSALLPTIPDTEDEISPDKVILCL
smiles,measurement,setting,value
O=C(/C=C/C(=O)Nc1ccc(NC(=O)c2ccc([N+](=O)[O-])o2)cc1)NCCCCCCNc1cccc2c1C(=O)N(C1CCC(=O)NC1=O)C2=O (stereo not given),Activity,Mus musculus [1],26%
same,Activity,[2],Non-Toxic
same,Cmax,[3],318 ng/mL
same,Vd,[4],38 L/kg
same,inhibition,Mus musculus [5],Dde
same,clearance,[6],6.8 L/h/kg
same,Tmax,[7],3.71 h
same,inhibition,Mus musculus [8],Dde
same,Activity,[9],Non-Toxic
same,MRT inf,[10],1.95 h
same,Activity,[11],Non-Toxic
same,Survival,[12],89%
same,Activity,[13],Tde
same,inhibition at 30 µM,[14],15.6%
same,MRT last at 48 h,[15],7.6 h
same,Activity,[16],76%
same,Activity,[17],16.3 mmol/L
same,AUC(0-t) at 48 h,[18],257 ng·h/mL
same,Activity,[19],Non-Toxic
same,Cmax,[20],8.37 ng/mL
same,Activity,[21],27.2 mmol/L
same,half-life,[22],7.36 h
same,Activity,[23],Non-Toxic
same,CL/F,[24],429 L/h/kg
same,Tmax,[25],4.98 min
same,Activity,THP-1,Dde
same,MRT last at 48 h,[26],1.74 h
same,inhibition at 30 µM,[27],11%
same,Activity,[28],9%
same,Activity,[29],26.8 µmol/L
